Data as given in patent US10363239B2, “Method for inhibiting growth of cancer cells” (Pain Therapeutics, Inc., priority 2013, dated 2019).
Like-named read-outs stand apart in the source and are kept apart here.

Tests used:
[1] = test system: mu opiate receptor (MOR); assay: MOR agonist activity using [35S]GTPγS binding assay in striatal membranes; type: biochemical; conditions: for MOR agonist activity ([35S]GTPγS binding), FLNA-Binding Compound as Agonist 1 μM + BFNA: 1 μM compound + 1 μM β-funaltrexamine
Procedure, shortened: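 Striatal membranes (200 μg) were preincubated 5 min at 30 °C in HEPES pH 7.5 with 100 mM NaCl, 1 mM MgCl2 and 0.5 nM [35S]GTPγS, then 5 min more with 0.1–10 μM compound. Gαo was immunoprecipitated and bound radioactivity counted by scintillation.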

[2] = biological target: FLNA pentapeptide of SEQ ID NO: 1 (Bn-VAKGL) (Homo sapiens, UniProt P21333); assay: FITC-NLX-based FLNA screening assay (inhibition of FITC-naloxone binding to Bn-VAKGL on streptavidin plates); conditions: 10 nM FITC-NLX
[3] = read-out: Percent Binding Inhibition, FLNA-binding compound 0.01 μM
[4] = read-out: Percent Binding Inhibition, FLNA-binding compound 0.1 μM
[5] = read-out: Percent Binding Inhibition, FLNA-binding compound 1 μM
[6] = 0.1 μM compound relative to DAMGO
[7] = 1 μM compound + BFNA relative to DAMGO + BFNA
[8] = 1 μM compound relative to DAMGO
[9] = FLNA-binding compound 0.01 μM, read-out: Percent Binding Inhibition
[10] = FLNA-binding compound 0.1 μM, read-out: Percent Binding Inhibition
[11] = FLNA-binding compound 1 μM, read-out: Percent Binding Inhibition
[12] = Series C-1, 0.1 μM compound, relative to DAMGO
[13] = Series C-1, 0.1 μM compound, [35S]GTPγS binding to Gαo, striatal membranes
[14] = Series C-1, 1 μM compound + 1 μM β-FNA
[15] = Series C-1, 1 μM compound + β-FNA, relative to DAMGO + BFNA
[16] = Series C-1, 1 μM compound, relative to DAMGO
[17] = Series C-1, 1 μM compound, [35S]GTPγS binding to Gαo, striatal membranes
[18] = Series C-2, 0.1 μM compound, relative to DAMGO
[19] = Series C-2, 0.1 μM compound, [35S]GTPγS binding to Gαo, striatal membranes
[20] = Series C-2, 1 μM compound + 1 μM β-FNA
[21] = Series C-2, 1 μM compound + β-FNA, relative to DAMGO + BFNA
[22] = Series C-2, 1 μM compound, relative to DAMGO
[23] = Series C-2, 1 μM compound, [35S]GTPγS binding to Gαo, striatal membranes

SMILES	inhibition at 0.01 µM [2, 3] [%]	inhibition at 0.1 µM [2, 4] [%]	inhibition at 1 µM [2, 5] [%]	MOR agonist activity ([35S]GTPγS binding), FLNA-Binding Compound as Agonist 0.1 μM ([1]; 0.1 μM compound) [%]	% DAMGO (0.1 μM) [1, 6] [%]	MOR agonist activity ([35S]GTPγS binding), FLNA-Binding Compound as Agonist 1 μM ([1]; 1 μM compound) [%]	MOR agonist activity ([35S]GTPγS binding), FLNA-Binding Compound as Agonist 1 μM + BFNA [1] [%]	% DAMGO + BFNA [1, 7] [%]	% DAMGO (1 μM) [1, 8] [%]	inhibition at 0.01 µM [2, 9] [%]	inhibition at 0.1 µM [2, 10] [%]	inhibition at 1 µM [2, 11] [%]	% DAMGO (0.1 μM) [1, 12] [%]	Concentration of FLNA-Binding Compound as Agonist 0.1 μM [1, 13] [%]	Concentration of FLNA-Binding Compound as Agonist 1 μM + BFNA [1, 14] [%]	% DAMGO + BFNA [1, 15] [%]	% DAMGO (1 μM) [1, 16] [%]	Concentration of FLNA-Binding Compound as Agonist 1 μM [1, 17] [%]	also measured
COc1c2c(cc3c1C(CC(=O)c1ccncc1)[N+](C)(C)CC3)OCO2 (stereo not drawn) [Compound B0005]	31.8	34.8	41.7																% DAMGO (0.1 μM) ([1]; Series B, 0.1 μM compound, relative to DAMGO): 50.5%; MOR agonist activity, percent [35S]GTPγS binding at the stated compound concentration ([1]; Series B, 0.1 μM compound, [35S]GTPγS binding to Gαo, striatal membranes): 89.2%; MOR agonist activity, percent [35S]GTPγS binding at the stated compound concentration ([1]; Series B, 1 μM compound + 1 μM β-FNA): 45.1%; % DAMGO + BFNA ([1]; Series B, 1 μM compound + β-FNA, relative to DAMGO + BFNA): 68.6%; % DAMGO (1 μM) ([1]; Series B, 1 μM compound, relative to DAMGO): 42.6%; MOR agonist activity, percent [35S]GTPγS binding at the stated compound concentration ([1]; Series B, 1 μM compound, [35S]GTPγS binding to Gαo, striatal membranes): 110.4%
CC1CN(CC(O)COC2CCCCC2)CC(C)O1 (stereo not drawn) [Compound A0017]				161.9	96.9	246.0	65.2	187.9	100.4	29.8	38.6	44							
CC(=O)c1ccc(OCC(O)CN2CC(C)OC(C)C2)cc1 (stereo not drawn) [Compound A0044]				176.2	89.8	209.1	134.7	182.3	75.8	32.4	36.9	39.6							
CC(=O)c1ccc(S(=O)(=O)N2CCC3(CC2)OCCN3S(=O)(=O)c2ccc(C(C)=O)cc2)cc1 [Compound C0011]	37.6	41.4	46										126.8	217.0	19.0	36.5	114.3	305.0	% DAMGO (0.1 μM) [1, 18]: 126.8%; MOR agonist activity, percent [35S]GTPγS binding at the stated compound concentration [1, 19]: 217.0%; MOR agonist activity, percent [35S]GTPγS binding at the stated compound concentration [1, 20]: 19.0%; % DAMGO + BFNA [1, 21]: 36.5%; % DAMGO (1 μM) [1, 22]: 114.3%; MOR agonist activity, percent [35S]GTPγS binding at the stated compound concentration [1, 23]: 305.0%
CCOC(=O)CN1CCC2(CC1)OCCN2S(=O)(=O)c1ccc(C(C)=O)cc1 [Compound C0099M]										46.9	53.3	56							% DAMGO (0.1 μM) [1, 18]: 93.8%; MOR agonist activity, percent [35S]GTPγS binding at the stated compound concentration [1, 19]: 157.2%; MOR agonist activity, percent [35S]GTPγS binding at the stated compound concentration [1, 20]: 114.7%; % DAMGO + BFNA [1, 21]: 241.5%; % DAMGO (1 μM) [1, 22]: 88.0%; MOR agonist activity, percent [35S]GTPγS binding at the stated compound concentration [1, 23]: 195.7%
Cc1cccc(S(=O)(=O)N2CCC3(CC2)OCCN3S(=O)(=O)c2cccc(C)c2)c1 [Compound C0014]	29.5	38.8	40										82.0	144.9	76.3	116.1	59.2	153.5	
O=C(OCc1ccccc1)c1ccc(S(=O)(=O)N2CCC3(CC2)OCCN3S(=O)(=O)c2ccc(C(=O)OCc3ccccc3)cc2)cc1 [Compound C0042]										42.4	49.7	56.1	98.9	167.1	110.6	666.3	119.2	260.9	
CC1CCC(C(C)C)C(OCC(O)CN2CCCCC2)C1 (stereo not drawn) [Compound A0005]	34.2	38.2	43.8	179.7	105.0	239.2	23.5	45.1	89.6										
